Blank lines part the entries; values can stand above or below the molecule they belong to.
Biological target: T1, mouse TRPM3a2 (mTRPM3) ion channel (Mus musculus, UniProt J9SQF3)
T1 construct: expressed in transfected cells; host or cells: flip-in HEK293
Assay: TRPM3 ion channel driven Ca2+ uptake, Fluo-4 AM assay (PS-stimulated, overexpressing flip-in HEK293 cells)
Assay type: cell-based
Outline: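 Flip-in HEK293 cells overexpressing mTRPM3α2, loaded with Fluo-4 AM, were added to wells with compound plus 50 μM pregnenolone sulfate in Ca2+-containing Krebs buffer and read immediately (ex 485/em 535 nm). Percent inhibition was scaled between PS-plus-vehicle and positive-control-inhibitor signals.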

[1] = PS (50 μM) stimulated, cpd 001-199
[2] = PS (50 μM) stimulated Ca2+ influx, HEK293, cpds 300-399
[3] = PS (50 μM) stimulated, cpds. 400-499
[4] = PS (50 μM) stimulated, cpds. 500-599
[5] = PS (50 μM) stimulated, cpds. 667-751
[6] = PS (50 μM) stimulated, cpds. 600-666

T1 sequence (J9SQF3 1-1709 isoform J9SQF3-12): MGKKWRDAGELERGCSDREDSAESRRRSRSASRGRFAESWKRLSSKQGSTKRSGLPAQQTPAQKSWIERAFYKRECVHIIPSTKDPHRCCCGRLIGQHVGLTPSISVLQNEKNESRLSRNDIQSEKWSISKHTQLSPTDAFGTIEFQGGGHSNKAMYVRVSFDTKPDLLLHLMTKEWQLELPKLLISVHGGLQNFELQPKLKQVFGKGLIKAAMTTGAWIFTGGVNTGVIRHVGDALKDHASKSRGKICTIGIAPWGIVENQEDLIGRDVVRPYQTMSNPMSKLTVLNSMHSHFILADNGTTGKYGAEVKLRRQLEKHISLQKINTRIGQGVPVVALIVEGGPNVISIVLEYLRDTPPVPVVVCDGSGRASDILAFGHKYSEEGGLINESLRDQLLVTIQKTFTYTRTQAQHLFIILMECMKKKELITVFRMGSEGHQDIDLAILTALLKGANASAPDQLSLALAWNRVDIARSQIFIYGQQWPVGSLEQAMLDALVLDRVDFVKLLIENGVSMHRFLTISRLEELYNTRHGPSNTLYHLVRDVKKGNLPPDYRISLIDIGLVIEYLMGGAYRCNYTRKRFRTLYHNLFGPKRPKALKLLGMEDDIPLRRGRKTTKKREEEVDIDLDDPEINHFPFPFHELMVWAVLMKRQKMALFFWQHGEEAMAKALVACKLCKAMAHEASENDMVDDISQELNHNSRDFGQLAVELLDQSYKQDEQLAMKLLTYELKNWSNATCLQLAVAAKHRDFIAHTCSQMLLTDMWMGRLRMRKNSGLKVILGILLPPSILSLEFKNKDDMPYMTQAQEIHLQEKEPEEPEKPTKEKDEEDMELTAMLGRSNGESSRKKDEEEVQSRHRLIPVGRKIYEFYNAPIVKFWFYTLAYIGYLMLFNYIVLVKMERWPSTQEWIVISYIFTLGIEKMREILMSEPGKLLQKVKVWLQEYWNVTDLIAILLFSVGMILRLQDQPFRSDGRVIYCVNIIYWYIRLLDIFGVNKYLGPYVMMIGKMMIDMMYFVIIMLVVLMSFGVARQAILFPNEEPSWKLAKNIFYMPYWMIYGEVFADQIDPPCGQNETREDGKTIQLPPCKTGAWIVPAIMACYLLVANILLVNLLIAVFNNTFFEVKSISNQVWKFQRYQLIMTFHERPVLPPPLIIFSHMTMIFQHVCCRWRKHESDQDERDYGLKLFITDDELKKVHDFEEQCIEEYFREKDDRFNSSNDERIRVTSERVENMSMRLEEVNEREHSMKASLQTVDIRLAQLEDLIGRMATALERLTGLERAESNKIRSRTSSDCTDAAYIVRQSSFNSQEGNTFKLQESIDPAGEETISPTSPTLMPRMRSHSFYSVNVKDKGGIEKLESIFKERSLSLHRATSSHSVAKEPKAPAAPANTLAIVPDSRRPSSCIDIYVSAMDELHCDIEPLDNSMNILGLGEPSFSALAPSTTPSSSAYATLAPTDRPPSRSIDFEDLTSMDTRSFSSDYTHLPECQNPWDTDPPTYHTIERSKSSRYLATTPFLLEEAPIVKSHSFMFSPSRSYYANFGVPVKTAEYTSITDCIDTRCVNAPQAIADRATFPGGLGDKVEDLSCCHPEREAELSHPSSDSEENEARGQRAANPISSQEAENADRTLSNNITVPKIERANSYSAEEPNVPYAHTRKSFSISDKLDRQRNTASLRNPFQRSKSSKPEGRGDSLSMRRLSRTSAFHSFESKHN

SMILES: Cc1ncsc1COc1ccc2oc(C)c(C(=O)NC(C)C(=O)N(C)CCO)c2c1 (single isomer, unassigned) [396 - En 1]
IC50 [2]: ≤ 1000 nM

SMILES: COc1ncccc1COc1ccc2oc(C)c(C(=O)NC(C)C(N)=O)c2c1 (single isomer, unassigned) [437 - En 1]
IC50 [3]: ≤ 1000 nM

SMILES: Cc1ncsc1COc1ccc2oc(C)c(C(=O)NC3CCN(CCO)C3=O)c2c1F (single isomer, unassigned) [326 - En 1]
IC50 [2]: ≤ 1000 nM

SMILES: Cc1oc2ccc(OCc3cccnc3C(F)(F)F)cc2c1C(=O)n1cc(N)cn1 [cpd 181, (4-amino-1H-pyrazol-1-yl)(2-methyl-5-((2-(trifluoromethyl)pyridin-3-yl)methoxy)benzofuran-3-yl)methanone]
IC50 [1]: 1000 to 20000 nM

SMILES: Cc1oc2ccc(OCc3ccc4nccn4c3)cc2c1C(=O)NC1CCN(C(=O)OC(C)(C)C)CC1(F)F (centres unmarked) [cpd 094, tert-butyl 3,3-difluoro-4-(5-(imidazo[1,2-a]pyridin-6-ylmethoxy)-2-methylbenzofuran-3-carbox-amido)piperidine-1-carboxylate]
IC50 [1]: 1000 to 20000 nM

SMILES: COc1cccc(COc2ccc3oc(C)c(C(=O)NC4CCN(C(=O)OC(C)(C)C)CC4(F)F)c3c2)n1 (centres unmarked) [cpd 091, tert-butyl 3,3-difluoro-4-(5-((6-methoxypyridin-2-yl)methoxy)-2-methylbenzofuran-3-carbox-amido)piperidine-1-carboxylate]
IC50 [1]: 1000 to 20000 nM

SMILES: Cc1oc2ccc(OCc3ccccn3)cc2c1C(=O)NC1COCC1O (single isomer, unassigned) [387 - En 1]
IC50 [2]: ≤ 1000 nM

SMILES: Cc1oc2ccc(OCc3cccnc3O)cc2c1C(=O)NC1CCN(CCO)C1=O (single isomer, unassigned) [408 - En 1]
IC50 [3]: ≤ 1000 nM

SMILES: Cc1ncc(COc2ccc3oc(C)c(C(=O)NC(C)(CO)C(N)=O)c3c2)s1 (single isomer, unassigned) [462 - En 1]
IC50 [3]: ≤ 1000 nM

SMILES: Cc1oc2c(Cl)cc(OCc3cccnc3C(F)(F)F)cc2c1C(=O)NC1CCNCC1(F)F (single isomer, unassigned) [184 - En 1]
IC50 [1]: 1000 to 20000 nM

SMILES: Cc1ncsc1COc1cc(F)c2oc(C)c(C(=O)NC3CCN(CCO)C3=O)c2c1 (single isomer, unassigned) [365 - En 1]
IC50 [2]: ≥ 20000 nM

SMILES: Cc1oc2ccc(OCc3ccccn3)cc2c1C(=O)O [cpd 005, 2-methyl-5-(pyridin-2-ylmethoxy)benzofuran-3-carboxylic acid]
IC50 [1]: 1000 to 20000 nM

SMILES: Cc1ncsc1COc1ccc2oc(C)c(C(=O)NC(Cn3cncn3)C(N)=O)c2c1 (single isomer, unassigned) [729 - En 2]
IC50 [5]: ≤ 1000 nM

SMILES: Cc1oc2ccc(OCc3cccs3)cc2c1C(=O)O [cpd 012, 2-methyl-5-(thiophen-2-ylmethoxy)benzofuran-3-carboxylic acid]
IC50 [1]: 1000 to 20000 nM

SMILES: Cc1oc2ccc(OCC3CCOCC3)cc2c1C(=O)O [cpd 015, 2-methyl-5-((tetrahydro-2H-pyran-4-yl)methoxy)benzofuran-3-carboxylic acid]
IC50 [1]: 1000 to 20000 nM

SMILES: Cc1oc2ccc(OCc3cccnc3C(F)(F)F)cc2c1C(=O)NC1CCN(C)CC1(F)F (single isomer, unassigned) [130 - En 1]
IC50 [1]: ≤ 1000 nM

SMILES: Cc1oc2cc(C#N)c(OCc3cccnc3C(F)(F)F)cc2c1C(=O)NC1CCNCC1(F)F (single isomer, unassigned) [195 - En 2, 6-cyano-N-(3,3-difluoropiperidin-4-yl)-2-methyl-5-((2-(trifluoromethyl)pyridin-3-yl)methoxy)-benzofuran-3-carboxamide]
IC50 [1]: 1000 to 20000 nM

SMILES: Cc1oc2ccc(OCc3ccccn3)cc2c1C(=O)NC1CCN(CCO)C1=O (single isomer, unassigned) [406 - En 1]
IC50 [3]: ≤ 1000 nM

SMILES: Cc1oc2ccc(OCc3ccnn3C)cc2c1C(=O)NC1COCC1O (single isomer, unassigned) [655 - En 1]
IC50 [6]: ≤ 1000 nM

SMILES: Cc1oc2ccc(OCc3cnco3)cc2c1C(=O)N[C@H]1CCNC1 [cpd 020, (S)-2-methyl-5-(oxazol-5-ylmethoxy)-N-(pyrrolidin-3-yl)benzofuran-3-carboxamide]
IC50 [1]: 1000 to 20000 nM

SMILES: Cc1ncsc1COc1ccc2oc(C)c(C(=O)NC3CC(=O)N(CCO)C3)c2c1 (single isomer, unassigned) [180 - En 1]
IC50 [1]: 1000 to 20000 nM

SMILES: Cc1oc2ccc(OCc3cccc4cnccc34)cc2c1C(=O)NC1CCN(C)CC1 [cpd 060, 5-(isoquinolin-5-ylmethoxy)-2-methyl-N-(1-methylpiperidin-4-yl)benzofuran-3-carboxamide]
IC50 [1]: 1000 to 20000 nM

SMILES: Cc1oc2ccc(OCc3cccnc3O)cc2c1C(=O)NC(CO)C(N)=O (single isomer, unassigned) [459 - En 1]
IC50 [3]: ≤ 1000 nM

SMILES: Cc1oc2ccc(OCc3cccnc3C(F)(F)F)cc2c1C(=O)NC1CCNCC1(F)F (centres unmarked) [cpd 074, N-(3,3-difluoropiperidin-4-yl)-2-methyl-5-((2-(trifluoromethyl)pyridin-3-yl)methoxy)benzofuran-3-carboxamide]
IC50 [1]: ≤ 1000 nM

SMILES: Cc1cccnc1COc1ccc2oc(C)c(C(=O)NC3CCN(C(=O)OC(C)(C)C)CC3(F)F)c2c1 (centres unmarked) [cpd 088, tert-butyl 3,3-difluoro-4-(2-methyl-5-((3-methylpyridin-2-yl)methoxy)benzofuran-3-carbox-amido)piperidine-1-carboxylate]
IC50 [1]: 1000 to 20000 nM

SMILES: Cc1oc2ccc(OCc3ccn(C)n3)cc2c1C(=O)N[C@H]1CCNC1 [cpd 023, (S)-2-methyl-5-((1-methyl-1H-pyrazol-3-yl)methoxy)-N-(pyrrolidin-3-yl)benzofuran-3-carboxamide]
IC50 [1]: 1000 to 20000 nM

The next lines start with the values.

IC50 [1]: 1000 to 20000 nM
SMILES: COc1ncccc1COc1ccc2oc(C)c(C(=O)O)c2c1 [cpd 100, 5-((2-methoxypyridin-3-yl)methoxy)-2-methylbenzofuran-3-carboxylic acid]

IC50 [3]: ≤ 1000 nM
SMILES: Cc1ccc(COc2ccc3oc(C)c(C(=O)NC(C)(CO)C(N)=O)c3c2)cn1 (single isomer, unassigned) [464 - En 1]

IC50 [4]: ≤ 1000 nM
SMILES: Cc1ncc(COc2ccc3oc(C)c(C(=O)NC4(CO)CCCNC4=O)c3c2)o1 (single isomer, unassigned) [511 - En 1]

IC50 [2]: 1000 to 20000 nM
SMILES: COc1ncccc1COc1cc(F)c2oc(C)c(C(=O)NC3(CO)CCOCC3)c2c1 [cpd 369, 7-fluoro-N-(4-(hydroxymethyl)tetrahydro-2H-pyran-4-yl)-5-((2-methoxypyridin-3-yl)methoxy)-2-methylbenzofuran-3-carboxamide]

IC50 [1]: ≤ 1000 nM
SMILES: Cc1oc2ccc(OCc3cccnc3C(F)(F)F)cc2c1C(=O)NC1(CCO)CCOC1 (single isomer, unassigned) [126 - En 1]

IC50 [2]: ≤ 1000 nM
SMILES: Cc1oc2ccc(OCc3ccnn3CC(F)F)cc2c1C(=O)NC1(CO)CCNC1=O (single isomer, unassigned) [333 - En 1]

IC50 [1]: 1000 to 20000 nM
SMILES: Cc1oc2ccc(OCc3ccsc3)cc2c1C(=O)O [cpd 011, 2-methyl-5-(thiophen-3-ylmethoxy)benzofuran-3-carboxylic acid]

IC50 [1]: 1000 to 20000 nM
SMILES: Cc1cccnc1COc1ccc2oc(C)c(C(=O)NC3CCNCC3(F)F)c2c1 (centres unmarked) [cpd 053, N-(3,3-difluoropiperidin-4-yl)-2-methyl-5-((3-methylpyridin-2-yl)methoxy)benzofuran-3-carboxamide]

IC50 [6]: 1000 to 20000 nM
SMILES: Cc1ccc(COc2ccc3oc(C)c(C(=O)NC4(CO)CCOCC4)c3c2)cn1 [cpd 622, N-(4-(hydroxymethyl)tetrahydro-2H-pyran-4-yl)-2-methyl-5-((6-methylpyridin-3-yl)methoxy)benzofuran-3-carboxamide]

IC50 [1]: 1000 to 20000 nM
SMILES: Cc1ncsc1COc1cc(F)c2oc(C)c(C(=O)NC3(CO)CCOCC3)c2c1 [compound 122, 7-fluoro-N-(4-(hydroxymethyl)tetrahydro-2H-pyran-4-yl)-2-methyl-5-((4-methylthiazol-5-yl)-methoxy)benzofuran-3-carboxamide]

IC50 [4]: ≤ 1000 nM
SMILES: Cc1ncccc1COc1ccc2oc(C)c(C(=O)NC3(C(N)=O)CCOC3)c2c1 (single isomer, unassigned) [591 - En 2]

IC50 [5]: 1000 to 20000 nM
SMILES: Cc1oc2ccc(OCc3ncccc3C3CC3)cc2c1C(=O)NC1(CO)CCOCC1 [cpd 705, 5-((3-cyclopropylpyridin-2-yl)methoxy)-N-(4-(hydroxymethyl)tetrahydro-2H-pyran-4-yl)-2-methylbenzofuran-3-carboxamide]

IC50 [4]: ≤ 1000 nM
SMILES: COc1ncccc1COc1ccc2oc(C)c(C(=O)NC3(C(N)=O)CCOC3)c2c1 (single isomer, unassigned) [597 - En 1]

IC50 (PS (50 μM) stimulated Ca2+ influx, HEK293, cpds 200-299): 1000 to 20000 nM
SMILES: Cc1oc2ccc(OCc3cccnc3C(F)(F)F)cc2c1C(=O)NC1(CO)CNC1 [compound 202, N-(3-(hydroxymethyl)azetidin-3-yl)-2-methyl-5-((2-(trifluoromethyl)pyridin-3-yl)methoxy)benzo-furan-3-carboxamide]

IC50 [2]: ≤ 1000 nM
SMILES: Cc1oc2ccc(OCc3c(F)cnn3C)cc2c1C(=O)NC1(CO)CCCNC1=O (single isomer, unassigned) [355 - En 1]

IC50 [6]: 1000 to 20000 nM
SMILES: Cc1oc2ccc(OCc3ccnn3C)cc2c1C(=O)NC1COCC1O (single isomer, unassigned) [656 - En 2]

IC50 [1]: 1000 to 20000 nM
SMILES: Cc1oc2ccc(OCc3ccoc3)cc2c1C(=O)O [cpd 001, 5-(furan-3-ylmethoxy)-2-methylbenzofuran-3-carboxylic acid]

IC50 [2]: 1000 to 20000 nM
SMILES: Cc1ncsc1COc1ccc2oc(C)c(C(=O)NC3(CO)CC3)c2c1F [cpd 327, 4-fluoro-N-(1-(hydroxymethyl)cyclopropyl)-2-methyl-5-((4-methylthiazol-5-yl)methoxy)benzofuran-3-carboxamide]

IC50 [2]: 1000 to 20000 nM
SMILES: Cc1ncc(COc2ccc3oc(C)c(C(=O)NC4COCC4O)c3c2)s1 (single isomer, unassigned) [388 - En 2]

IC50 [4]: ≤ 1000 nM
SMILES: Cc1ncc(COc2ccc3oc(C)c(C(=O)NC4(CO)CCNC4=O)c3c2)s1 (centres unmarked) [517 - En 1]

IC50 [3]: 1000 to 20000 nM
SMILES: Cc1ncsc1COc1ccc2oc(C)c(C(=O)NC(CO)CN3CCOCC3)c2c1 (single isomer, unassigned) [488 - En 2]
